Target: T1, full length human recombinant glucocorticoid receptor (Homo sapiens, UniProt P04150)
T1 construct: It contains some partially purified full length human recombinant glucocorticoid receptor; purchased Panvera/Invitrogen PV4302
T1 sequence (P04150 1-777): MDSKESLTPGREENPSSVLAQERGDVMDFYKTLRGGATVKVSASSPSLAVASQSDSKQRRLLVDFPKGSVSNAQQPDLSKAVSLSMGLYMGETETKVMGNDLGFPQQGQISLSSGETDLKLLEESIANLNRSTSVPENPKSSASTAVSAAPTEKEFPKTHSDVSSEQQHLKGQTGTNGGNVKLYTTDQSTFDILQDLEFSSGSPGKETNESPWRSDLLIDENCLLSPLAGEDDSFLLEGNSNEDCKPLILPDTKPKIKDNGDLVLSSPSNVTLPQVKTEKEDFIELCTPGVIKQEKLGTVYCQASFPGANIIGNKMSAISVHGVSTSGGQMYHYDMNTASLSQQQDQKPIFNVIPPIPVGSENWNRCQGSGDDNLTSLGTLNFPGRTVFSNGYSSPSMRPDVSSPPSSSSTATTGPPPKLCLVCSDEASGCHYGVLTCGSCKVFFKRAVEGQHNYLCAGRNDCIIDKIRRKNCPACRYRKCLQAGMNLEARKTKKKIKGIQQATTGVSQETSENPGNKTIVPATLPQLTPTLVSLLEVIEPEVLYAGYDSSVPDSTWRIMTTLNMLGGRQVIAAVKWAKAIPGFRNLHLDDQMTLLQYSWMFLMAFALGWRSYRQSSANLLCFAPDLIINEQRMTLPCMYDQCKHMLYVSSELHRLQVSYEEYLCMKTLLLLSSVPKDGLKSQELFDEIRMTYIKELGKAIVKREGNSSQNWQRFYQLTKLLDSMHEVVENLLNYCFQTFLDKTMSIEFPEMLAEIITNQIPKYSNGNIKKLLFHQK
Experiment: Glucocorticoid Receptor Binding Assay (Glucocorticoid Receptor Competitor Assay far red kit, fluorescence polarization)
Conditions: competition with fluorescent GR ligand Fluormone GS Far Red, 3 hours at 22° C., pH 7.4; Ki calculated from IC50 by Cheng-Prusoff
Procedure, shortened: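 Fluorescence polarization competition with partially purified full-length human recombinant GR, stabilizing peptide and Fluormone GS Far Red tracer in screening buffer pH 7.4; 3 hours at 22° C in the dark, read at 610–660 nm. IC50 from sigmoidal fit; Ki by Cheng-Prusoff.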

Row | Ki [nM] | SMILES
1 | 0.3 | C[C@H](c1ccc(Oc2ccc(OCC(=O)O)cc2)cc1Cl)[C@@](O)(c1ccc2c(c1)n(C)c(=O)n2C)C(F)(F)F (stereo in doubt) [Example 93, (4-{3-Chloro-4-[2-(1,3-dimethyl-2-oxo-2,3-dihydro-1H-benzoimidazol-5-yl)-3,3,3-trifluoro-2-hydroxy-1-methyl-propyl]-phenoxy}-phenoxy)-acetic acid]
2 | 1.4 | Cc1cc([C@@](O)([C@@H](C)c2ccc(Oc3cc(C(F)(F)F)c(C(=O)O)cn3)cc2Cl)C(F)(F)F)cc(C)c1C#N (stereo in doubt) [Example 146, 6-{3-Chloro-4-[2-(4-cyano-3,5-dimethyl-phenyl)-3,3,3-trifluoro-2-hydroxy-1-methyl-propyl]-phenoxy}-4-trifluoromethyl-nicotinic acid]
3 | 1.7 | COC(=O)c1ccc(Oc2ccc([C@@H](C)[C@@](O)(c3ccc4oc(=O)n(C)c4c3)C(F)(F)F)c(Cl)c2)cc1F (relative stereo) [Example 176, 4-{3-Chloro-4-[3,3,3-trifluoro-2-hydroxy-1-methyl-2-(3-methyl-2-oxo-2,3-dihydro-benzooxazol-5-yl)-propyl]-phenoxy}-2-fluoro-benzoic acid methyl ester]
4 | 6.2 | C[C@H](c1ccc(Oc2c(C(=O)O)ccnc2Cl)cc1Cl)[C@@](O)(c1ccc2c(c1)n(C)c(=O)n2C)C(F)(F)F (stereo in doubt) [Example 113, 2-Chloro-3-{3-chloro-4-[2-(1,3-dimethyl-2-oxo-2,3-dihydro-1H-benzoimidazol-5-yl)-3,3,3-trifluoro-2-hydroxy-1-methyl-propyl]-phenoxy}-isonicotinic acid]
5 | 10.4 | C[C@H](c1ccc(Oc2cc(Cl)ncc2C(=O)O)cc1Cl)[C@@](O)(c1ccc2c(c1)n(C)c(=O)n2C)C(F)(F)F (stereo in doubt) [Example 108, 6-Chloro-4-{3-chloro-4-[2-(1,3-dimethyl-2-oxo-2,3-dihydro-1H-benzoimidazol-5-yl)-3,3,3-trifluoro-2-hydroxy-1-methyl-propyl]-phenoxy}-nicotinic acid]
6 | 11.1 | COC(=O)c1ccc(Oc2ccc(Cl)c([C@H](C)[C@](O)(c3ccc4c(c3)N(C)C(=O)CO4)C(F)(F)F)c2)cc1 (relative stereo) [Example 7, 4-{4-Chloro-3-[3,3,3-trifluoro-2-hydroxy-1-methyl-2-(4-methyl-3-oxo-3,4-dihydro-2H-benzo[1,4]oxazin-6-yl)-propyl]-phenoxy}-benzoic acid methyl ester]
7 | 1.6 | Cc1cc([C@@](O)([C@@H](C)c2ccc(Oc3ccc(C(=O)O)cn3)cc2Cl)C(F)(F)F)cc(C)c1C#N (stereo in doubt) [Example 148, 6-{3-Chloro-4-[2-(4-cyano-3,5-dimethyl-phenyl)-3,3,3-trifluoro-2-hydroxy-1-methyl-propyl]-phenoxy}-nicotinic acid]
8 | 7 | C[C@H](c1ccc(-c2ccc(CC(=O)O)cc2)cc1Cl)[C@@](O)(c1ccc2c(c1)n(C)c(=O)n2C)C(F)(F)F (stereo in doubt) [Example 82, {3′-Chloro-4′-[2-(1,3-dimethyl-2-oxo-2,3-dihydro-1H-benzoimidazol-5-yl)-3,3,3-trifluoro-2-hydroxy-1-methyl-propyl]-biphenyl-4-yl}-acetic acid]
9 | 1.3 | C[C@H](c1ccc(Oc2ccc(C(=O)O)c(F)c2)cc1Cl)[C@@](O)(c1ccc2c(c1)N(C)C(=O)CO2)C(F)(F)F [Example 57]
10 | 2.4 | C[C@H](c1ccc(Oc2ccccc2C(=O)O)cc1Cl)[C@@](O)(c1ccc2c(c1)n(C)c(=O)n2C)C(F)(F)F (relative stereo) [Example 96, 2-{3-Chloro-4-[2-(1,3-dimethyl-2-oxo-2,3-dihydro-1H-benzoimidazol-5-yl)-3,3,3-trifluoro-2-hydroxy-1-methyl-propyl]-phenoxy}-benzoic acid]
11 | 1.9 | C[C@H](c1ccc(Oc2ccc(Cl)cc2C(=O)O)cc1Cl)[C@@](O)(c1ccc2c(c1)n(C)c(=O)n2C)C(F)(F)F (stereo in doubt) [Example 100, 5-Chloro-2-{3-chloro-4-[2-(1,3-dimethyl-2-oxo-2,3-dihydro-1H-benzoimidazol-5-yl)-3,3,3-trifluoro-2-hydroxy-1-methyl-propyl]-phenoxy}-benzoic acid]
12 | 33.7 | C[C@H](c1ccc(-c2ccc(F)c(C(=O)O)c2)cc1Cl)[C@@](O)(c1cccc(C#N)c1)C(F)(F)F (stereo in doubt) [Example 154, 3′-Chloro-4′-[2-(3-cyano-phenyl)-3,3,3-trifluoro-2-hydroxy-1-methyl-propyl]-4-fluoro-biphenyl-3-carboxylic acid]
13 | 261 | C[C@@H](c1ccc(C(=O)O)cc1Cl)[C@](O)(c1ccc2c(c1)N(C)C(=O)CO2)C(F)(F)F (relative stereo) [Example 43, 3-Chloro-4-[3,3,3-trifluoro-2-hydroxy-1-methyl-2-(4-methyl-3-oxo-3,4-dihydro-2H-benzo[1,4]oxazin-6-yl)-propyl]-benzoic acid]
14 | 0.8 | C[C@H](c1ccc(-c2ccnnc2)cc1Cl)[C@@](O)(c1ccc2oc(=O)n(C)c2c1)C(F)(F)F (stereo in doubt) [Example 195, 5-[2-(2-Chloro-4-pyridazin-4-yl-phenyl)-1-hydroxy-1-trifluoromethyl-propyl]-3-methyl-3H-benzooxazol-2-one]
15 | 370 | C[C@H](c1ccc(OC(C)(C)C(=O)O)cc1Cl)[C@@](O)(c1ccc2c(c1)N(C)C(=O)CO2)C(F)(F)F (stereo in doubt) [Example 207, 2-{3-Chloro-4-[3,3,3-trifluoro-2-hydroxy-1-methyl-2-(4-methyl-3-oxo-3,4-dihydro-2H-benzo[1,4]oxazin-6-yl)-propyl]-phenoxy}-2-methyl-propionic acid]
16 | 2.9 | C[C@@H](c1ccc(-c2ccc(C(=O)O)cc2)cc1Cl)[C@](O)(c1ccc2c(c1)N(C)C(=O)CO2)C(F)(F)F (stereo in doubt) [Example 22, 3′-Chloro-4′-[3,3,3-trifluoro-2-hydroxy-1-methyl-2-(4-methyl-3-oxo-3,4-dihydro-2H-benzo[1,4]oxazin-6-yl)-propyl]-biphenyl-4-carboxylic acid]
17 | 48.7 | C[C@@H](c1ccc(-c2ccc(C(=O)O)c(F)c2)cc1Cl)[C@](O)(c1ccc(=O)n2ccccc12)C(F)(F)F (stereo in doubt) [Example 50, 3′-Chloro-3-fluoro-4′-[3,3,3-trifluoro-2-hydroxy-1-methyl-2-(4-oxo-4H-quinolizin-1-yl)-propyl]-biphenyl-4-carboxylic acid]
18 | 0.3 | C[C@H](c1ccc(-c2ccc(C(=O)O)c(Cl)c2)cc1Cl)[C@@](O)(c1ccc2oc(=O)n(C)c2c1)C(F)(F)F (relative stereo) [Example 124, 3,3′-Dichloro-4′-[3,3,3-trifluoro-2-hydroxy-1-methyl-2-(3-methyl-2-oxo-2,3-dihydro-benzooxazol-5-yl)-propyl]-biphenyl-4-carboxylic acid]
19 | 0.8 | C[C@H](c1ccc(Oc2ccc(C(=O)O)c(Cl)n2)cc1Cl)[C@@](O)(c1ccc2c(c1)N(C)C(=O)CO2)C(F)(F)F (racemic) [Example 63, 2-Chloro-6-{3-chloro-4-[3,3,3-trifluoro-2-hydroxy-1-methyl-2-(4-methyl-3-oxo-3,4-dihydro-2H-benzo[1,4]oxazin-6-yl)-propyl]-phenoxy}-nicotinic acid]
20 | 3.9 | C[C@H](c1ccc(Oc2ccc(C(=O)O)nn2)cc1Cl)[C@@](O)(c1ccc2oc(=O)n(C)c2c1)C(F)(F)F (relative stereo) [Example 201, 6-{3-Chloro-4-[3,3,3-trifluoro-2-hydroxy-1-methyl-2-(3-methyl-2-oxo-2,3-dihydro-benzooxazol-5-yl)-propyl]-phenoxy}-pyridazine-3-carboxylic acid]
21 | 3.7 | C[C@@H](c1cc(Oc2ccc(Cl)c(C(=O)O)c2)ccc1Cl)[C@](O)(c1ccc2c(c1)N(C)C(=O)CO2)C(F)(F)F (relative stereo) [Example 15, 2-Chloro-5-{4-chloro-3-[3,3,3-trifluoro-2-hydroxy-1-methyl-2-(4-methyl-3-oxo-3,4-dihydro-2H-benzo[1,4]oxazin-6-yl)-propyl]-phenoxy}-benzoic acid]
22 | 1 | C[C@H](c1ccc(Oc2ccc(C(=O)O)c(Cl)c2)cc1Cl)[C@@](O)(c1ccc2c(c1)N(C)C(=O)CO2)C(F)(F)F (racemic) [Example 59, 2-Chloro-4-{3-chloro-4-[3,3,3-trifluoro-2-hydroxy-1-methyl-2-(4-methyl-3-oxo-3,4-dihydro-2H-benzo[1,4]oxazin-6-yl)-propyl]-phenoxy}-benzoic acid]

Reference: patent US8450313B2, “2,3-diaryl- or heteroaryl-substituted 1,1,1-trifluoro-2-hydroxypropyl compounds” (Hoffmann-La Roche Inc., priority 2009, dated 2013)
